Data: patent US9161944B2, “Method for preventing cancer metastasis” (INSERM (INSTITUT NATIONAL DE LA SANTE ET DE LA SANTE ET DE …, priority 2010, dated 2015)

Legend:
PAF receptor = PAF receptor (Homo sapiens, UniProt P25105); assay: 3H-C16-PAF binding, membrane homogenates of CHO cells; set-up: expressed in transfected cells; host or cells: CHO cells (membrane homogenates); settings: 0.3 and 2 μM, FIG. 11A
Description: FIG. 11: Effects of JPH1701 on PAF receptor, PLC and PKCs activities. FIG. 11A) Histogram showing the percentage of control specific binding of 3H-C16-PAF to recombinant PAF receptor obtained from membrane homogenates of CHO cells by 0.3 and 2 μM edelfosine and by 0.3 and 2 μM JPH1701. FIG. 11B) Histogram showing the percentage of control agonist response (% effect i.e: increase of intracellular calcium concentration) of 0.3 and 2 μM edelfosine and JPH1701 on PAF receptor normalized to the response induced by 100 nM C16-PAF. […] FIG. 11C-D) Dose responses curves showing the effect of JPH1701 on PKCs (FIG. 11C, PKCs are: alpha, Beta 1, Beta 2, Gamma, Delta, Epsilon, Zeta, Eta, Theta, Iota) and PhosphoLipase C (PLC) activities (FIG. 11D).

SK2 = target: T1, SK2 (Homo sapiens, UniProt Q9H2S1); assay: Whole-cell K+ currents in HEK293 cells expressing recombinant SK2; type: cell-based; settings: 10 μM, FIG. 9B
T1 construct: expressed in transfected cells; host or cells: HEK293
Description: FIG. 9. Selectivity effect of JPH1701 on SKCa subtype and on IKCa channels. FIG. 9A) Example of whole-cell K^+ currents recorded in HEK293 cells expressing recombinants SK1, SK2, SK3 and IKCa channels before and after application of 10 μM JPH1701 (upper graphs: SK1 and SK2 respectively, bottom graphs: SK3 and IKCa respectively). Currents were generated by ramp protocol from −100 mV to +60 mV in 500 ms from a constant holding of 0 mV and with a pCa 6. FIG. 9B) Histograms showing the effect of 10 μM JPH1701 on SKCa (SK1, SK2, SK3) and IKCa current amplitudes recorded at 0 mV. […] For each channel (SK1, SK2, SK3 and IKCa) the left column (pale grey) represents the control result and the right column (dark grey) represents the result after JPH1701 application.
The selectivity of JPH1701 toward the others members of the SKCa/IKCa channels was tested. […] The experimental protocol was similar to the one used in FIG. 8. JPH1701 was tested for membrane potential from +60 mV to −100 mV on 500 msec.

MDA-MB-435s shSK3 = assay: Transwell motility of cells not expressing SK3; type: cell-based, human; settings: 10 nM to 300 nM; non-specific effect at 1 μM, FIG. 6F
Description: FIG. 6: JPH1701 (or Ohmline) activity on cell motility on cancerous MDA-MB-435s cells and on non cancerous MCF-10A cells. The motility was tested by transwell assay. Additionally, viability tests were performed using MTT assays. FIG. 6A-B) JPH1701 (the concentrations of JPH1701, for the FIG. 6A, are 0 (control condition), 10 nM, 100 nM, 300 nM and 1 μM) reduces motility (FIG. 6A) of MDA-MB-435s wild type (WT) cells from 10 nM without affecting viability (FIG. 6B) except at 10 μM. FIG. 6C-D) MCF-10A motility (FIG. 6C) and viability (FIG. 6D) are not affected by JPH1701 (the concentrations of JPH1701, for the FIG. 6C, are 0 (control condition), 10 nM, 100 nM, 300 nM and 1 μM). FIG. 6E-F) Effect on SK3 dependent motility.
MDA-MB-435s and HEK293 cells were transduced with lentiviral vector at multiplicities of infection (MOI) of 1 to 3 in the presence of polybrene (4 μg/ml, Sigma). The transduction rate for MDA-MB-435s determined by counting GFP cells was close to 90%. In order to selection one clone of HEK293-SK3/KCa2.3 limit dilution were realized and each clone was tested in patch clamp with apamin and edelfosine and by western blotting in order to control expression of SK3/KCa2.3 channel.
At least three independent experiments were each performed in triplicate.

SKCa channel = assay: 125I-apamin binding, membrane homogenates of cerebral cortex; settings: 0.3 and 2 μM, FIG. 8E
Description: FIG. 8: Effect of JPH1701 on SK3 channel activity. […] Results are expressed as the mean±S.E.M. FIG. 8C) Histograms showing the effect of racemic hexadecyloxy-2-O-methyl-sn-glycerol-lactose (JPH 1701 or Ohmline, i.e: JPH1701 in the example) mixture and of both enantiomers (R-JPH1701 and S-JPH1701) on SK3 activity. The percentages of inhibition represent the ratio (SK3 current amplitude and chord conductance (in the presence of 10 μM JPH1701)/SK3 current amplitude in control experiments). Black bars show current at 0 mV and grey bars indicate the chord conductance. FIG. 8D) Dose-response effect of the form + of JPH1701 (concentrations: 0 (control), 0.3, 1 and 10 μM). Columns, mean, bars, SEM, (5 cells for racemic mix and 4 cells for + and − forms). FIG. 8E) Histogram showing the % of control specific binding of ^125I-Apamin ([…]) to SKCa channel obtained from membrane homogenates of cerebral cortex by 0.3 and 2 μM JPH1701.
To investigate whether JPH1701 interacts with the apamin binding site, 125I-apamin binding studies were performed.

Chain of PAF receptor (P25105 whole entry): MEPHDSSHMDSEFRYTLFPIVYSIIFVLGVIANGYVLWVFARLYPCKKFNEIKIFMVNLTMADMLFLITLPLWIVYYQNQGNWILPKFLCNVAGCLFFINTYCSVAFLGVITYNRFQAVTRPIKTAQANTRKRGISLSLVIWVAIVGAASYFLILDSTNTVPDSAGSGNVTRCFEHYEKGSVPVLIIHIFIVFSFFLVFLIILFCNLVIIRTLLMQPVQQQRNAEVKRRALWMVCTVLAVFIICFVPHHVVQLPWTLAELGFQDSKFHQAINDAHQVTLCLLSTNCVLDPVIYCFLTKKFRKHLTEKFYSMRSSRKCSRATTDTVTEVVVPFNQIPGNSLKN
T1 sequence (Q9H2S1 whole entry): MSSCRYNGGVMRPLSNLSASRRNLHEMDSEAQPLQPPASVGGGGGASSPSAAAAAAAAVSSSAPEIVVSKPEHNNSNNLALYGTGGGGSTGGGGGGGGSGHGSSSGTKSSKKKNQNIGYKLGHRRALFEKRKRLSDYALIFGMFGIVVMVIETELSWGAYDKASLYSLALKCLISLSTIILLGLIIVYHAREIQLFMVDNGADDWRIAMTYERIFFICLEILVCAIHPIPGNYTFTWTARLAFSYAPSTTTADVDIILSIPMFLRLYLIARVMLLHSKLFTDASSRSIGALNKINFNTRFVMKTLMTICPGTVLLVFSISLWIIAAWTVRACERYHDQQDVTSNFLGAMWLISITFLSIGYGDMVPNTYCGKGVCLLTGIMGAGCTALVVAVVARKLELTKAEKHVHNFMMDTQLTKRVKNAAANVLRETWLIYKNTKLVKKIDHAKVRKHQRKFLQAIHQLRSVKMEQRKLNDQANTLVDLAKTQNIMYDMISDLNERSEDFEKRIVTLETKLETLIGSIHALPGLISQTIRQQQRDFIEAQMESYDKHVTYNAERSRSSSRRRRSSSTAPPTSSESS

**Q.** What does the source list for “hexadecyloxy-2-O-methyl-sn-glycerol-lactose [JPH1701]”?
**A.** Interaction with C16-PAF binding site of PAF receptor (PAF receptor): unable to interact; Effect on SK2 channels (SK2): inactive; Effect on migration ability of cells not expressing SK3 (MDA-MB-435s shSK3): does not affect; Inhibition of 125I-apamin binding (SKCa channel): does not inhibit
